The target of data set [1] is T1, Albumin (Homo sapiens, UniProt P02768). Put plainly: Binding affinity to human serum albumin assessed as remaining parent compound at 3 mM measured up to 24 hrs by RP-HPLC analysis. The format is ADME, cell-free. As to conditions: read-out: Activity.
For data set [2], the system named is Streptococcus pyogenes. Nature of the data set: Antibacterial activity against Streptococcus pyogenes assessed as reduction in microbial growth at 0.024 to 0.113 mg/ml after 270 mins by microdilution assay. Type of data set: functional, organism-based. The following applies: dose 0.024-0.113 mg/ml.
The test system of data set [3] is Tenacibaculum skagerrakense. Put plainly: Antibacterial activity against Tenacibaculum skagerrakense assessed as reduction in microbial growth at 0.024 to 0.113 mg/ml after 270 mins by microdilution assay. Type of data set: functional. As to conditions: dose 0.024-0.113 mg/ml.
The target in data set [4] is T1, Albumin. Put plainly: Binding affinity to albumin (unknown origin) at 3 mM measured up to 24 hrs by RP-HPLC analysis. Type of data set: ADME, cell-free. The following applies: serum, 3000 µM.
Data set [5] relates to PBMC. Nature of the data set: Antiinflammatory activity against LPS-induced human PBMC cells assessed as reduction in TNF-alpha expression at 7.5 to 100 ug/ml by ELISA. The format is functional, cell-based. The following applies: dose 7.5-100 µg/ml. In general terms: An ELISA detects its analyte on a solid surface through an enzyme-linked reagent.
The nature of data set [6]: Cytotoxicity against human PBMC cells assessed as reduction in cell viability at 5 to 50 ug/ml measured up to 48 hrs by CellTox Green assay. The format is cell-based. As to conditions: dose 5-50 µg/ml.
Data set [7] has as its system Serratia marcescens. Nature of the data set: Antibacterial activity against Serratia marcescens assessed as reduction in microbial growth at 0.024 to 0.113 mg/ml after 270 mins by microdilution assay. Type of data set: functional, organism-based. The following applies: dose 0.024-0.113 mg/ml.
The subject of data set [8] is Streptococcus pneumoniae. Put plainly: Antibacterial activity against Streptococcus pneumoniae assessed as reduction in microbial growth at 0.024 to 0.113 mg/ml after 270 mins by microdilution assay. The following applies: dose 0.024-0.113 mg/ml. Type of data set: functional, organism-based. Background: In broth dilution the organism is exposed to a series of concentrations in liquid medium.

Data set [9] relates to Alteromonas macleodii. Put plainly: Antibacterial activity against Alteromonas macleodii assessed as reduction in microbial growth at 0.024 to 0.113 mg/ml after 270 mins by microdilution assay. The format is functional. The following applies: dose 0.024-0.113 mg/ml.
The subject of data set [10] is Escherichia coli. Nature of the data set: Antibacterial activity against Escherichia coli assessed as reduction in microbial growth at 0.024 to 0.113 mg/ml after 270 mins by microdilution assay. The format is functional, organism-based. As to conditions: dose 0.024-0.113 mg/ml.
In data set [11] the test system is Enterococcus faecalis. Nature of the data set: Antibacterial activity against Enterococcus faecalis assessed as reduction in microbial growth at 0.024 to 0.113 mg/ml after 270 mins by microdilution assay. Type of data set: functional, organism-based. The following applies: dose 0.024-0.113 mg/ml.
The subject of data set [12] is Vibrio coralliilyticus. Nature of the data set: Antibacterial activity against Vibrio coralliilyticus assessed as reduction in microbial growth at 0.024 to 0.113 mg/ml after 270 mins by microdilution assay. Type of data set: functional. As to conditions: dose 0.024-0.113 mg/ml.
Data set [13] has as its system Klebsiella pneumoniae. Nature of the data set: Antibacterial activity against Klebsiella pneumoniae assessed as reduction in microbial growth at 0.024 to 0.113 mg/ml after 270 mins by microdilution assay. The format is functional, organism-based. As to conditions: dose 0.024-0.113 mg/ml.
Data set [14] relates to Pseudoalteromonas shioyasakiensis. Put plainly: Antibacterial activity against Pseudoalteromonas […] assessed as reduction in microbial growth at 0.024 to 0.113 mg/ml after 270 mins by microdilution assay. Type of data set: functional. As to conditions: dose 0.024-0.113 mg/ml.
Data set [15] deals with Staphylococcus aureus. Nature of the data set: Antibacterial activity against methicillin-resistant Staphylococcus aureus assessed as reduction in microbial growth at 0.024 to 0.113 mg/ml after 270 mins by microdilution assay. Type of data set: functional, organism-based. The following applies: dose 0.024-0.113 mg/ml.
Data set [16] has as its system Pseudomonas aeruginosa. Nature of the data set: Antibacterial activity against Pseudomonas aeruginosa assessed as reduction in microbial growth at 0.024 to 0.113 mg/ml after 270 mins by microdilution assay. Type of data set: functional, organism-based. As to conditions: dose 0.024-0.113 mg/ml.
Data set [17] concerns Vibrio mediterranei. Nature of the data set: Antibacterial activity against Vibrio shilonii assessed as reduction in microbial growth at 0.024 to 0.113 mg/ml after 270 mins by microdilution assay. Type of data set: functional. The following applies: dose 0.024-0.113 mg/ml.
Data set [18] concerns Vibrio harveyi. Nature of the data set: Antibacterial activity against Vibrio harveyi assessed as reduction in microbial growth at 0.024 to 0.113 mg/ml after 270 mins by microdilution assay. The format is functional, organism-based. As to conditions: dose 0.024-0.113 mg/ml.

Calls of active or inactive are those of the source. No cut-off for these calls is given here. Bridge positions count the residues as written; N and C are the ends. Peptide text beside a SMILES is read from it.

T1 sequence (P02768 whole entry): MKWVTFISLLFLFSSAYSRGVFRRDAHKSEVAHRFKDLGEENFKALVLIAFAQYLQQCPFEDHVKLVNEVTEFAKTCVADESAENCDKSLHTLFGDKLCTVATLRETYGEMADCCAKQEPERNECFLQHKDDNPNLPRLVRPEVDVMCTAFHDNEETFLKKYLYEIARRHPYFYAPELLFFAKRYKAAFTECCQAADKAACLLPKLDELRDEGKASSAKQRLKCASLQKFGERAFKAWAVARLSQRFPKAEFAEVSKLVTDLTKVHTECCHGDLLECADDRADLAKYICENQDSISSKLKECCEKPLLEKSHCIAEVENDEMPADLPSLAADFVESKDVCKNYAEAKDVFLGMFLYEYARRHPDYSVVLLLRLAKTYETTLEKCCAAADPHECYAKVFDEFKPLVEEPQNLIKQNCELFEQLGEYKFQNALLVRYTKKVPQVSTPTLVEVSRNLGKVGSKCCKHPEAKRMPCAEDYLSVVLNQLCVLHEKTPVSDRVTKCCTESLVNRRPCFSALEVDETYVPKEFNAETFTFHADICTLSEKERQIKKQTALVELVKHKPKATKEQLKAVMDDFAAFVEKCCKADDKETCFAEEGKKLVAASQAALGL

For `CC[C@H](C)[C@H](NC(=O)[C@@H](NC(=O)[C@@H](N)Cc1ccccc1)[C@H](C)O)C(=O)N[C@@H](Cc1ccc(O)cc1)C(=O)N1CCC[C@H]1C(=O)NCC(=O)N[C@H]1CSSC[C@@H](C(=O)O)NC(=O)[C@H](Cc2ccccc2)NC(=O)[C@H](CC(C)C)NC(=O)CNC(=O)[C@H](Cc2c[nH]cn2)NC1=O`, the remaining at 24 h, 3000 µM in [1] is 85%.
In the case of `CC[C@H](C)[C@@H]1NC(=O)[C@H](CC(C)C)NC(=O)CNC(=O)[C@H](Cc2ccccc2)NC(=O)[C@@H]2CCCN2C(=O)[C@H]([C@@H](C)O)NC(=O)[C@H](Cc2ccc(O)cc2)NC(=O)[C@H](Cc2c[nH]cn2)NC(=O)[C@@H](NC(=O)CN)CSSC[C@@H](C(=O)N[C@@H](Cc2ccccc2)C(=O)O)NC1=O` (H-GCHYTPFGLICF-OH; disulfide 2-11), the outcome in [2], in data set [5] and in data set [15] was Active. The outcome in data set [3], in data set [7], in data set [8], in data set [9], in data set [10] and in [11] was inactive. Besides, the result in [12], in [13], in data set [14], in data set [16], in [17] and in data set [18] was inactive. The Activity entry in [4] is reported as “Active”; in data set [6] it was “Non-Toxic”. The remaining at 24 h, 3000 µM in [1] was 3%.

These data come from ChEMBL document CHEMBL4673278, “Identification and Characterization of a Peptide from the Stony Coral Heliofungia actiniformis” (J Nat Prod, 2020).
